Results published in US9610274B2, “Methods for treating bipolar disorder” (priority 2010, dated 2017).
Read-outs that look alike come from different tables or passages of the source.

What was measured:
[1] = biological target: T1, hDAT (human dopamine transporter) (Homo sapiens, UniProt Q01959); assay: Inhibition of [125I]RTI-55 binding to hDAT in HEK293 cell membranes; conditions: HEK-hDAT cells; mean ± SEM
T1 construct: expressed in transfected cells; host or cells: HEK293 (ATCC), puromycin-selected clonal cells
T1 sequence (Q01959 whole entry): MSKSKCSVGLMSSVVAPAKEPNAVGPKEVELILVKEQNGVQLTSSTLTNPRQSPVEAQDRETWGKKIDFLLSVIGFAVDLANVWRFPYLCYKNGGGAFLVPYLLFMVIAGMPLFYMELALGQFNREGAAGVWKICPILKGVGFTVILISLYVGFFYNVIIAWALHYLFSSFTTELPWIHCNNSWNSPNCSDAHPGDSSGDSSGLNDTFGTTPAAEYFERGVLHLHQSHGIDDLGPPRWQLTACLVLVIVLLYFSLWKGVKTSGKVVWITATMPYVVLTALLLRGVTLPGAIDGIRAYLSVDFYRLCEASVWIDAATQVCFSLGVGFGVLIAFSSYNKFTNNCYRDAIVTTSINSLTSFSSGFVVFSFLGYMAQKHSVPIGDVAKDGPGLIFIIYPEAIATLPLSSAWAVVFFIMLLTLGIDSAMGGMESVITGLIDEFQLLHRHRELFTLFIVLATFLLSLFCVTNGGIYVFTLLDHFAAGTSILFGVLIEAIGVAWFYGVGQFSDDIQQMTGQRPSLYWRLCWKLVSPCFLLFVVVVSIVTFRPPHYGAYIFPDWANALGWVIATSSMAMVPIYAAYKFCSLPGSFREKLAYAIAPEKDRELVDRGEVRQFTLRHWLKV

[2] = biological target: T2, hSERT (human serotonin transporter) (Homo sapiens, UniProt P31645); assay: Inhibition of [3H]serotonin uptake in HEK-hSERT cells; format: cell-based
T2 construct: expressed in transfected cells; host or cells: HEK293 (ATCC), puromycin-selected clonal cells
T2 sequence (P31645 whole entry): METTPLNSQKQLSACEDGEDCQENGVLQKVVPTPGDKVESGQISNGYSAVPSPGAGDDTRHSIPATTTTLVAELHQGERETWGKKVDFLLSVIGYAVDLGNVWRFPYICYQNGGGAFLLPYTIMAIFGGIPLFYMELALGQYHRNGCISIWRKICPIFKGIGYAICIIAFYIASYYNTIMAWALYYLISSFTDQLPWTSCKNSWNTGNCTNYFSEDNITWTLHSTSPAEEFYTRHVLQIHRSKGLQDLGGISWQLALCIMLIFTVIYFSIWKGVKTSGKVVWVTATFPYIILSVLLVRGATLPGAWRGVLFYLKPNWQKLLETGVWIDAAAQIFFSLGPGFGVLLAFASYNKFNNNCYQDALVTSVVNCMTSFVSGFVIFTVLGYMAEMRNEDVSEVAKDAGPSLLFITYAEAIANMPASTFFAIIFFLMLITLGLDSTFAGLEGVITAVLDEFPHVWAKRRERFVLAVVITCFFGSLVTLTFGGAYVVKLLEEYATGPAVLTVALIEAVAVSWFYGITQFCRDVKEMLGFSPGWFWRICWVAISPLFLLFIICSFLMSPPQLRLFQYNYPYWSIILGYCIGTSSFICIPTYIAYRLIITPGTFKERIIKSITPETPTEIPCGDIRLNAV

[3] = biological target: T3, hNET (human norepinephrine transporter) (Homo sapiens, UniProt P23975); format: binding; conditions: HEK-hNET cells; mean ± SEM
T3 construct: expressed in transfected cells; host or cells: HEK293 (ATCC), geneticin-selected clonal cells
T3 sequence (P23975 whole entry): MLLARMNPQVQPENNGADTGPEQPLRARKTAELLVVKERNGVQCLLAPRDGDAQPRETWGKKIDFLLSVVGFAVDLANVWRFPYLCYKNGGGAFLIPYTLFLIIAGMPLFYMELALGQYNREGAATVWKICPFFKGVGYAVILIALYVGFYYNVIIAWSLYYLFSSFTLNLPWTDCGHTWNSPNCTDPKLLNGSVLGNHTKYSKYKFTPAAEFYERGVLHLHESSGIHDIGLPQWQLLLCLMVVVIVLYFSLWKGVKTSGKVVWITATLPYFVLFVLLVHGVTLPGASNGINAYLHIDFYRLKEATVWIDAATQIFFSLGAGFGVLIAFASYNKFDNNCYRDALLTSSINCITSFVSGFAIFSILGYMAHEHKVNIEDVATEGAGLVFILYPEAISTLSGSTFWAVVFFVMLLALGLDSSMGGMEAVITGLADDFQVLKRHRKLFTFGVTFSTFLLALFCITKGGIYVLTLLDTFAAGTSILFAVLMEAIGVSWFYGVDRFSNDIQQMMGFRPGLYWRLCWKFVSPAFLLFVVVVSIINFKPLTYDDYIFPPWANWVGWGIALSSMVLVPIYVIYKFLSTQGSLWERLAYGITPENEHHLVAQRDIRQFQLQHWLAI

[4] = biological target: T2, hSERT (human serotonin transporter); assay: Inhibition of [125I]RTI-55 binding to hSERT in HEK293 cell membranes; conditions: HEK-hSERT cells; mean ± SEM
[5] = test system: adult human subjects with moderate or severe major depression without psychotic features; assay: Randomized double-blind placebo- and active-controlled 6-week study in major depression; format: in vivo; conditions: for MADRS response rate / MADRS remission rate: Week 6; for MADRS response rate: >50% improvement in MADRS total score; for MADRS remission rate: MADRS total score less than 9; for 3 Atypical items of HAM-D 31, mean result / CGI-S score, mean result / MADRS core mood subscale, mean result / MADRS sadness (Items 1 + 2), mean result / MADRS total score (primary), mean result / MADRS total score, mean result: change from baseline at Week 6; for ABCD questionnaire items with statistically significant superiority to placebo: post hoc analyses, of 51 items, U.S. sites
Procedure: The primary objective of this study was to determine the efficacy of 2 target doses of test compound (200 and 400 mg/day) in comparison with placebo during 6 weeks of treatment in adult human subjects with moderate or severe major depression without psychotic features. An active comparator (paroxetine) was included to assist in distinguishing a negative study from a failed study. In addition, an exit interview was intended to gather information on unexpected benefits of the test compound in order to refine the clinical development program. […] In addition, positive effects of the test compound on ratings of physical energy/fitness, reduction in sadness or depression and mental energy or motivation.
This was a randomized, double-blind, parallel-group, active, and placebo-controlled, multicenter study conducted in the U.S. (23 centers) and Canada (4 centers). There were 2 phases: a pretreatment phase (screening/washout and a baseline visit) and a 6-week, double-blind treatment phase. Paroxetine, a positive control, was included to evaluate assay sensitivity. After washout (if needed) of prohibited substances, subjects were randomly assigned (1:1:1:1) to receive the test compound titrated to a target dose of 200 mg/day or 400 mg/day, matching placebo, or a fixed dose (20 mg/day) of paroxetine. Study drug was given twice daily for 6 weeks. Efficacy and safety were assessed weekly during the double-blind phase. Subjects completing the study underwent an Exit Interview (“Your Health and Well-Being”) and completed an Assessment of Benefits of Clinical-trial Drug-treatment (ABCD) questionnaire (U.S. sites only).

mice = assay: Forced swimming test in mice; format: in vivo; conditions: for ED50: Mus musculus
isolated mice = assay: Isolation-induced fighting in mice; format: in vivo; conditions: Mus musculus
Procedure: Male CD-1 mice (15-20 g) were utilized in this experiment. The test compound (15, 22 and 30 mg/kg) was dissolved in physiological saline (0.9%) and administered orally (PO) in a volume of 1 mL/100 g body weight.
Mice were isolated for up to 8 weeks in individual solid walled wire cages (24×20×17 cm). The animals were not disturbed except to replenish food. Aggression was tested by placing an intruder mouse into the home cage of the resident animal. Aggression was characterized by an attack on the “intruder” during a three minute period. […] Only those resident mice displaying fighting behavior were selected. […] ED50 values were calculated from the percent inhibition of fighting in computer program based on probit analysis.

rats = assay: Forced swimming test in rats; format: in vivo; conditions: 4 hours post-treatment
Procedure: Male CD-1 mice (16-24 g) and male Wistar rats (90-125 g) were utilized in these experiments. The test compound (10, 15 and 30 mg/kg) was dissolved in physiological saline (0.9%) and administered orally in a volume of 1 mL/100 g body weight.
Mice and rats were placed in glass cylinders of 1000 ml beakers (height 14 cm, diameter 11.5 cm) and 4000 ml beakers (height 24.5 cm, diameter 18.0 cm), respectively, containing water (25 degrees Celsius) up to a height of 9.0 cm for mice and 19.0 cm for rats. […] Immobility was defined as lack of movement, such as floating in the water with little or no movement of hind legs. Duration of immobility was timed with a stopwatch and recorded. In some experiments, mice or rats were allowed to swim for 6 or 10 minutes, respectively, one day prior to the forced swimming experiment.
In the single dose test, mice or rats were given test compound or 0.9% NaCl and placed in glass cylinders 1 hour or 4 hours post-treatment, respectively. In the multiple dose experiments, mice were dosed twice a day for 3 days and given an additional dose on Day 4. In addition, the mice were placed in the glass cylinders containing water at 25 degrees Celsius and allowed to swim for six minutes on Day 3. Statistical evaluation was performed using a computer program (The Pharmacological Calculation System of Tallarida and Murray (#425475-04-7-1992)) based on probit analysis. Statistical significance was determined using Student's t-test at a P value of <0.05.

[6] = Per-Protocol (LOCF), TC 200 mg/day
[7] = Per-Protocol (LOCF), TC 400 mg/day

## NC(=O)OC[C@H](N)Cc1ccccc1 [test compound, O-carbamoyl-(D)-phenylalaninol]
[1]
  Hill coefficient: −0.77 ± 0.12
[2]
  IC50: > 100 µM
[3]
  Hill coefficient: −1.45 ± 0.34
[4]
  Hill coefficient: −2.28 ± 0.05
[5]; ITT (LOCF), TC 200 mg/day
  MADRS response rate: 36%
  MADRS remission rate: 15%
  3 Atypical items of HAM-D 31, mean result: −0.4
  CGI-S score, mean result: −1.2
  MADRS core mood subscale, mean result: −8.6
  MADRS sadness (Items 1 + 2), mean result: −3.2
  MADRS total score (primary), mean result: −12.1
[5]; ITT (LOCF), TC 400 mg/day
  MADRS response rate: 41%
  MADRS remission rate: 19%
  3 Atypical items of HAM-D 31, mean result: −0.8
  CGI-S score, mean result: −1.3
  MADRS core mood subscale, mean result: −8.7
  MADRS sadness (Items 1 + 2), mean result: −3.4
  MADRS total score (primary), mean result: −12.4
[5]; ITT (LOCF), test compound 200 mg and 400 mg, paroxetine 20 mg/day
  superiority to placebo on the primary endpoint (change from baseline at Week 6 in MADRS total score): Neither the 200-mg nor the 400-mg dose of the test compound was statistically significantly superior to placebo
[5]; [6]
  MADRS response rate: 40%
  MADRS remission rate: 20%
  CGI-S score, mean result: −1.5
  MADRS total score, mean result: −14.8
[5]; [7]
  MADRS response rate: 50%
  MADRS remission rate: 29%
  CGI-S score, mean result: −1.6
  MADRS total score, mean result: −15.0
[5]; men, test compound 200 mg
  superiority to placebo on the primary endpoint, men: nominally statistically significant superiority to placebo
[5]; test compound 200 mg
  ABCD questionnaire items with statistically significant superiority to placebo: 14 items
[5]; test compound 400 mg
  ABCD questionnaire items with statistically significant superiority to placebo: 8 items
[5]; women, test compound 400 mg
  superiority to placebo on the primary endpoint, women: statistically significant superiority to placebo
mice; multiple dosing PO (twice a day for 3 days plus a dose on Day 4), read-out: ED50 (reduction of mean immobility time)
  ED50: 5.5 mg/kg
mice; read-out: ED50 (50% reduction in mean immobility time), single dose PO, 1 hour post-treatment
  ED50: 16.6 mg/kg
mice; multiple dosing 3 mg/kg PO, control 85 sec
  mean duration of immobility: 63 s
mice; multiple dosing 5 mg/kg PO, control 136 sec, significant
  mean duration of immobility: 73 s
mice; multiple dosing 8 mg/kg PO, control 114 sec, significant
  mean duration of immobility: 39 s
mice; single dose 10 mg/kg PO, control 131 sec
  mean duration of immobility: 101 s
mice; single dose 15 mg/kg PO, control 154 sec, significant
  mean duration of immobility: 80 s
mice; single dose 30 mg/kg PO, control 132 sec, significant
  mean duration of immobility: 30 s
Isolated mice; 1 h, 15 mg/kg PO, 60 min after dosing
  inhibition at 15 mg/kg: 28%
Isolated mice; 1 h, 22 mg/kg PO, 60 min after dosing
  inhibition at 22 mg/kg: 44%
Isolated mice; 1 h, 30 mg/kg PO, 60 min after dosing
  inhibition at 30 mg/kg: 56%
Isolated mice; PO, inhibition of isolation-induced fighting, probit analysis, read-out: ED50 (mg/kg, PO) (confidence limits)
  ED50: 25.9 mg/kg
rats; 10 mg/kg, control 74 sec, not statistically significant
  mean duration of immobility: 62 s
rats; 15 mg/kg, control 65 sec, not statistically significant
  mean duration of immobility: 39 s
rats; 30 mg/kg, control 38 sec, significant
  mean duration of immobility: 9 s
rats; Rattus norvegicus, single dose PO, read-out: ED50 (reduction of mean immobility time)
  ED50: 18.5 mg/kg
